The results in this text go back to ChEMBL document CHEMBL1201862, “PubChem BioAssay data set” (2004).

One experiment concerns HT-1080. Put plainly: HT1080 cell viability loss – fluorescence readout (AID 620). The class given is functional, cell-based. As to conditions: Homo sapiens.
A short description of experiment [1]: viability of uninfected HEp-2 cells – cell-based, HTS, cytotoxicity control for RSV inhibitor project, dose response (AID 2410). Conditions: human respiratory syncytial virus. The class given is functional.
The target in the next experiment is T1, Protein skinhead-1 (Caenorhabditis elegans, UniProt P34707).
T1 sequence (P34707 whole entry): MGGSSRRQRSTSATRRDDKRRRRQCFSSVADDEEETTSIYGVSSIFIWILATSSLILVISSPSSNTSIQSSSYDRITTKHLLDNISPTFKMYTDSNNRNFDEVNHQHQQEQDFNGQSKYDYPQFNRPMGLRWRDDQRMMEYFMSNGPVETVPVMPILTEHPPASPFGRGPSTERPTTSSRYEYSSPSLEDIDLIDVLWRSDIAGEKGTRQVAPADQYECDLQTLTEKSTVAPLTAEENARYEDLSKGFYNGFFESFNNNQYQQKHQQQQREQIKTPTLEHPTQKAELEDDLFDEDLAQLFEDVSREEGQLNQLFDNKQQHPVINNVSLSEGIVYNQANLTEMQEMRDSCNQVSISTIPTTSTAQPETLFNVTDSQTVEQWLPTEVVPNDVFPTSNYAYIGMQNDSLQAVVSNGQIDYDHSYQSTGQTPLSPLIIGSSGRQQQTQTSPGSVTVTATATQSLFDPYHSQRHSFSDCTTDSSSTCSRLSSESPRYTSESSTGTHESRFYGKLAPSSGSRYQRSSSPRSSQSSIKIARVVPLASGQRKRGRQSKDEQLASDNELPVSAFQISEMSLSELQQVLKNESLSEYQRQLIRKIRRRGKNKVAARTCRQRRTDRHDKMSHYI
The class given is functional.

A further experiment addresses Troponin, cardiac muscle (Homo sapiens, UniProt P19429+P45379+P63316). Put plainly: Fluorescence-based biochemical high throughput dose response assay for activators of the calcium sensitivity of cardiac Regulated Thin Filaments (RTF). [Related pubchem assays (depositor defined):AID493008, AID493018, AID504382, AID504383]. The class given is protein-complex assay.
The target in experiment [2] is Luciferin 4-monooxygenase (Photinus pyralis, UniProt P08659). Put plainly: Counter Screen for Luciferase-based Assay Positives. [Related pubchem assays: 620, 618, 411 ]. (The purpose of a counterscreen is to sort out artefacts and off-target activity.)
Luciferin 4-monooxygenase, sequence (P08659 whole entry): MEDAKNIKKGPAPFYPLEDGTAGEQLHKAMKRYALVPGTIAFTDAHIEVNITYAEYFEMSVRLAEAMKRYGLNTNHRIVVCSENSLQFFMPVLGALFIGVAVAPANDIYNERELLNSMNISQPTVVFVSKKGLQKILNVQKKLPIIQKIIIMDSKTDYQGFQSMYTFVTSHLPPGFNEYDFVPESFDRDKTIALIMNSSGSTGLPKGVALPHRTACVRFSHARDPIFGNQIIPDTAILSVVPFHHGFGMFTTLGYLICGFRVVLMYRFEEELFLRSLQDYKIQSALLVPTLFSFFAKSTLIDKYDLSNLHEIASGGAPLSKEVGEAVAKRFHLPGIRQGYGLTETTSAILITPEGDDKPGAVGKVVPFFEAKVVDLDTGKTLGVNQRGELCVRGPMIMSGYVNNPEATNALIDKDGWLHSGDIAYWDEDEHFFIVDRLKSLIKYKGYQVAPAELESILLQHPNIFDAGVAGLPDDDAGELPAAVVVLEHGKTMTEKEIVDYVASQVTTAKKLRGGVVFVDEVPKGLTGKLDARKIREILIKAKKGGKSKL
A short description of experiment [3]: cells.
A short description of experiment [4]: cells. The class given is functional, cell-based.
The test system of experiment [5] is BJ. The experiment in a line: BJ-TERT-LT-ST fibroblast viability loss – cell-based, RAS-independent, luminescence, dose response (AID 1935).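 Further: BJ fibroblasts immortalized with TERT plus LT and ST oncogenes.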 The class given is functional. Conditions: Homo sapiens.
Experiment [6] is described as follows: luciferase reporter signal suppression in cells – H4 neuroglioma cells, luminescence, dose response (AID 1990). The class given is functional, cell-based.
Experiment [7] in a line: luciferase reporter signal reduction – luminescence, H4-C neuroglioblastoma cells, dose response (AID 2458).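 Further: H4 neuroglioblastoma cells stably carrying a luciferase reporter gene fusion.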 The class given is functional, cell-based. (In general: Reporter assays use an easily measured gene product as a stand-in for the process of interest.)
The nature of experiment [8]: Luminescence Cell-Based Dose Response HTS to Identify Inhibitors of 5'UTR Stem-Loop Driven Prion Protein mRNA Translation in H4 Neuroglioblastoma Cells. [Related pubchem assays: 1827 (Project Summary), 1813 (Primary HTS)]. The class given is functional.
The nature of experiment [9]: alpha-synuclein stem-loop translation blockers – luminescence, H4 neuroglioblastoma cells, dose confirmation, confirmation (AID 2454).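 Further: H4 neuroglioblastoma cells carrying an alpha-synuclein 5'UTR luciferase reporter; potency for inhibition of the luciferase signal.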 The class given is functional, cell-based.
Experiment [10] concerns BJ. Put plainly: cells. The class given is functional, cell-based. As to conditions: Homo sapiens.
Experiment [11] is described as follows: alpha-synuclein stem-loop luciferase translation blockers – H4 neuroglioma cells, luminescence, confirmation (AID 1988). The class given is functional, cell-based.
Experiment [12] relates to BJ. The experiment in a line: BJ-TERT fibroblast viability loss – cell-based, RAS-independent, luminescence, dose response (AID 1933). As to conditions: Homo sapiens. The class given is functional.
Experiment [13] in a line: DRD fibroblast viability loss – cell-based, non-viral oncogenic, luminescence, dose response (AID 1934). The class given is functional. Conditions: Homo sapiens.
Experiment [14] is described as follows: A cytotoxicity screen of small molecule inhibitors of the PhoP region in Salmonella typhi identified in the primary screen. [Related pubchem assays: 1850, 1864, 1985 ]. The class given is functional.

Activity calls are given as the source filed them.

As usually defined, the EC50 is the concentration needed to bring the measured effect to its halfway point. For orientation: CC50 means the concentration giving 50% cytotoxicity. For orientation: IC50 means the concentration at which inhibition is half-maximal.

`Fc1ccc(-c2nnc(-c3ccc(Cl)cc3Cl)o2)cc1`: the EC50 was > 50 µM (not active) in the experiment with HT-1080; > 71.5 µM (inactive) at Troponin, cardiac muscle; 2.56 µM (active) in [2]. In addition, the CC50 in experiment [1] is 37 µM (active). Further, the IC50 at Protein skinhead-1 is > 100 µM (inactive).
In the case of `COc1ccc(C(=O)Nc2nc3c(s2)CCCC3)cc1S(=O)(=O)N1CCCc2ccccc21`, in [1], the 50% cytotoxic concentration (CC50) was 3.66 µM (active). Further, the IC50 in “cells [3]” was 5.95 µM (active).
As for `Cc1ccc(NC(=O)CSc2nc3ccccc3c3nc4ccccc4n23)cc1`, the EC50 is 0.963 µM (active) in the experiment “cells [4]”; 6.66 µM (inconclusive) in the experiment with BJ [5]; 0.142 µM (active) in experiment [6]; 0.518 µM (active) in experiment [7]; < 0.1 µM (active) in experiment [8]; 0.992 µM (active) in [9]. The EC50 in the experiment on BJ [10] is 24.2 µM (inconclusive); in [11], < 0.1 µM (active); in the experiment with BJ [12], 1.83 µM (inconclusive); in [13], 0.784 µM (active).
Regarding `CN1C(=O)C2(Nc3ccccc3-c3nc4ccccc4n32)c2ccccc21` (centres undefined), the EC50 in experiment [14] is > 50 µM (active).
The same measure, in the same setting: next, `CN(C)c1nnnn1-c1ccc(Oc2ccccc2)cc1`: > 50 µM (active).
For `Cc1ccc(S(=O)(=O)N2CCCC(c3nc(O)c4nnn(Cc5ccc6c(c5)OCCO6)c4n3)C2)cc1` (centres undefined), the CC50 in experiment [1] is 14.4 µM (active). In “cells [3]”, the IC50 is 10.2 µM (active).
As for `O=C1c2ccccc2C(=O)N1CCC(c1ccccc1)c1ccco1` (centres undefined), in [14], the EC50 is > 50 µM (active).
Take `O=[N+]([O-])c1ccccc1S(=O)(=O)Nc1cccc(-c2ccc(N3CCCC3)nn2)c1`: the CC50 in experiment [1] is 40.6 µM (active). In “cells [3]”, the IC50 is 5.15 µM (active).
